Measurements as given in patent publication US8663646B2, “P53 peptide vaccine” (priority 2007, dated 2014).

Experiments:
HLA-A*0201 [1] = target: T1, HLA-A*0201 (Homo sapiens, UniProt P04439, D140Y/D185E/D98H/E176V/E277Q/G131W/G231S/I119V/I121R/I166T/I218V/L300P/L318F/N151K/N90K/P208A/P217A/Q86G/Q94H/R138H/R169H/T345S); conditions: binding capacity previously determined; cited from earlier work
proteasome = assay: Proteasome processing, summarised over proteasome types (Table 5); type: biochemical; conditions: 30 residue long precursor peptides
Procedure: In the context of the invention, “being inefficiently processed by a proteasome” preferably means that within the first hour of digestion by a proteasome less than 1% of total digested peptide is found. The processing by a proteasome is preferably assessed by incubating a purified proteasome, more preferably a human proteasome with a peptide comprising the potential CTL epitope (30 amino acid length approximately) in a proteasome digestion buffer during at least one hour at 37° C. The reaction is subsequently stopped by adding trifluoroacetic acid. Analysis of the digested peptides is performed with electrospray ionization mass spectrometry (see example 1). Even more preferably, the human proteasome is an immunoproteasome from B-LCL JY cells (Kessler J H et al. 2001).
20S immuno-proteasomes were purified from a mouse B-cell line (RMA) and a human B-LCL cell line (JY) and 20S household proteasomes were purified from human tumor cell line (HeLa) as described (Kessler J H et al 2001). To assess kinetics, digestions were performed with different incubation periods as indicated. Briefly, peptides containing the (potential) CTL epitopes (30 mers, 20 μg) were incubated with 1 μg of purified proteasome at 37° C. for 1 h, 4 h and 24 h in 300 μl proteasome digestion buffer, trifluoroacetic acid (30 μl) was added to stop the digestion and samples were stored at −20° C. before mass spectrometric analysis. Electrospray ionization mass spectrometry was performed on a hybrid quadrupole time-of-flight mass spectromter, a Q-TOF (Micromass), equipped with an on-line nanoelectrospray interface with an approximate flow rate of […] as described (Kessler J H et al 2001). The peaks in the mass spectrum were searched in the digested precursor peptide using the Biolynx/proteins software (Micromass) supplied with the mass spectrometer. The intensity of the peaks in the mass spectra was used to establish the relative amounts of peptides generated after proteasome digestion. The relative amounts of the peptides are given as a percentage of the total amount of peptide digested by the proteasome at the indicated incubation time. Major cleavage sites are defined as more than >1% of total digested peptide within the first hour.

HLA-A*0201 [2] = target: T1, HLA-A*0201; assay: Peptide stabilization for HLA-A*0201; type: binding; conditions: HLA-A*0201; p53 peptides

- Peptide Binding Stability (HLA-A*0201 [2]): 6 h
Structure (SMILES): CSCC[C@H](NC(=O)[C@@H](N)CCCNC(=N)N)C(=O)N1CCC[C@H]1C(=O)N[C@@H](CCC(=O)O)C(=O)N[C@@H](C)C(=O)N[C@@H](C)C(=O)N1CCC[C@H]1C(=O)N1CCC[C@H]1C(=O)N[C@H](C(=O)O)C(C)C [p53 65-73]
- Peptide Binding Affinity (HLA-A*0201 [1]): high
- generation / processing by household and immunoproteasomes, in words (proteasome): not/inefficiently processed
